According to patent US10969382B2, “Systems and methods for assessing data collected from an electrically active cell culture” (Axion BioSystems, Inc., priority 2015, dated 2021):
Entries after “also recorded” stand apart in the source; their conditions may differ.

System: cardiomyocyte culture
Assay: Global conduction velocity (GCV) of beat propagation measured on a microelectrode array
Type: cell-based
Settings: increasing flecainide concentration; FIG. 8C
From the text: example, within 30 ms). FIG. 6A is a representation of an array of electrodes 22 of an exemplary well of a MEA 20 having electrodes 22 spaced 200 μm from one another in the vertical and horizontal directions. It is to be appreciated that the number of electrodes 22 and the spacing shown in FIG. 6A are for example purposes only and greater or fewer electrodes 22 can be used and the spacing can also differ from what is shown. […] The beat timestamps, or arrival times, on the neighboring beat receiving electrodes can be used to generate a data array of delay times, as shown in Table 1. […] For the exemplary beat shown in Table 1, the beat starting electrode 30 is represented by the data point in column 1, row 2. The delay time (tdi) at each electrode 22 is the difference between the beat arrival time (ti) on that particular beat receiving electrode 22 and the beat start time, to, at the beat starting electrode 30. tdi=ti−t0 The velocity at which a beat propagates through the cellular network, or the conduction velocity, is a useful parameter for assessing a cardiomyocyte culture. However, the conduction velocity can vary depending upon the location within the cell culture, and thus it is another example of a parameter that is subject to spatial variability. […]

SMILES: O=C(NCC1CCCCN1)c1cc(OCC(F)(F)F)ccc1OCC(F)(F)F (stereo not shown) [flecainide]
- conduction velocity using the GCV method: systematically reduced; also recorded: slows
